Data taken from article PMC7728344, “Pharmacokinetic Characterization of (Poly)phenolic Metabolites in Human Plasma and Urine after Acute and Short-Term Daily Consumption of Mango Pulp” (Molecules, 2020).
Where two headings read alike, the source gives them in different places. Each block holds one compound with its values, some of them ahead of it.

Key:
[1] = Concentration of (poly)phenolic metabolites in fasting urine at baseline, 24 h after single MP beverage and 15th day after 14-day MP intake (UHPLC-QQQ-MS); details: for concentration at 15 day / concentration at 0 h / concentration at 24 h: human, urine, oral; for concentration at 0 h / concentration at 24 h: 500 g
Description: The acute trial was a randomized, 3 arm, within-subject crossover study design (Figure 5A). The trial initiated with 3 days of food record collection to assess background (pre-study) dietary intake followed by counseling to adhere to a diet devoid of mango or its parts and relatively low in polyphenol-rich beverages/foods, which was maintained throughout the duration of the trial. […] In general, subjects were encouraged to follow their “usual” diet with the exception of foods/beverages that may interfere with the outcomes of the study. Food intake diaries and, phone call and email reminders helped subjects maintain compliance throughout the study period. After an initial 7-day run-in period on the limited polyphenol diet, subjects were assigned to a randomization sequence providing 1 of 3 study test beverages (recipes provided in Appendix A, Table A3) on three separate days in a random order: MP (500 g), MP (500 g) + VC (100 mg) or VC (100 mg) beverages. On each study day subjects arrived fasted and well hydrated. After standard admission procedures were completed (e.g., review of compliance with dietary requirements for 3 days prior to study day, dinner meal intake, usual sleep patterns), a catheter was placed by a registered nurse in subjects’ non-dominant arm and a fasting/baseline blood sample was collected (0 h). Subjects were provided with a standard breakfast meal 2 h after the study beverages. The breakfast meal was comprised of a buttermilk biscuit with butter and jelly, and scrambled egg white with shredded white cheddar cheese. After the 6 h blood collection, subjects ate a low polyphenol lunch consisting of dry roasted peanuts and fresh peeled cucumber with ranch dressing (Appendix A, Table A3).
Spot urine samples were collected in urine collection cups, immediately placed on ice and then aliquoted into individual cryovials. All the samples were stored at −80 °C until analysis.
A 14-day feeding trial was conducted with the MP only to study the effect of repetitive intake of MP on (poly)phenolic metabolite profiles. Upon completion of the acute trial, subjects were instructed to continue on the low polyphenolic diet for 2 weeks while consuming MP beverages (provided by CNRC) daily in the morning (250 g MP + 50 g water) and evening (250 g MP + 50 g water). On day 14, subjects consumed both beverages (500 g of MP in total) in the morning and reported to the CNRC on the 15th day after an overnight fast to provide a fasting blood and urine sample (Figure 5B). Blood and urine samples were collected as described above and stored at −80 °C until analysis.
The supernatant was collected and filtered through 0.2 µm polypropylene syringe filter before HPLC analysis.
The ESI conditions were the same as those used in the UHPLC-Q-TOF analysis. The quantification of the compounds was conducted by multiple-reaction monitoring (MRM) transitions. Spectra were recorded in both positive- and negative-ion mode with capillary voltage of 4500 V and drying gas flow rate of 9 L/min at 200 °C. The sheath gas temperature and flow rate were 300 °C and 11 L/min, respectively. Standards were optimized for collision energies, fragmentor voltages and MRM transitions using Mass Hunter Optimizer. The MRM transition for metabolites were created based on the results from UHPLC-Q-TOF-MS. Standards for plasma analysis were prepared in blank plasma (charcoal-stripped human plasma obtained from Bioreclamation IVT) for matrix match and for urine analysis were prepared in SMP.
The flow rate was maintained at 0.4 mL/min and the injection volume was 5 μL. The mobile phase consisted of acidified water (0.1% formic acid) (A) and acidified acetonitrile (0.1% formic acid) (B). The gradient for the separation of compounds was as follows: 5 to 5% B from 0 to 1 min; 10% B at 3 min; 15% B at 7 min; 15% B at 9 min; 20% B at 10 min; 20% B at 11 min; 25% B at 12 min; 30% B at 13 min; 30% B at 14 min; 95% B at 15 min; and back to 5% B at 16 min.

clinical = assay type: in vivo, human; set-up: AUC0–24h: concentration or dose not given beside the values
Description: SPE procedure was conducted to extract and concentrate the (poly)phenolic compounds and their metabolites from the plasma samples. Briefly, plasma samples were thawed on ice and 500 µL plasma was diluted with 1.5 mL of 0.1% formic acid in water with addition of internal standards (2-methylhippuric acid (2 ng/mL), phloridizin (1 ng/mL)) before being loaded on preconditioned SPE cartridges. The cartridges were washed with 0.1% formic acid in water (1 mL) after loading with plasma samples. The elution of the compounds was achieved by 0.1% formic acid in methanol (1 mL) and the eluent was dried under nitrogen gas at room temperature. […] Supernatant was collected in amber HPLC vials before analysis.
The absorption and elimination of 11 major mango metabolites over 24 h was determined after MP, MP + VC, and VC intake. The plasma concentration/area at each time point was determined by the mean of 13 subjects. The time vs. concentration curves and the time vs. area curves were created using GraphPad Prism (version 8.2.1). […] Tmax is the time (h) when Cmax was achieved. Wilcoxon signed-rank test was used for Tmax analysis due to non-normal distribution. Area under the plasma concentration time curve (AUC0−24h, nmol·h/L) was calculated by the linear trapezoidal method using Microsoft Excel 2013, version 15 [63]. […]

[2] = human plasma, 0−24 h, after VC (vitamin C 100 mg) beverage, mean ± standard error, read-out: Cmax
[3] = human plasma, after VC beverage, mean ± standard error
[4] = human plasma, after MP + VC beverage, mean ± standard error

- concentration at 15 day [1]: 300 ± 100 nM
- concentration at 0 h [1]: 300 ± 100 nM
- concentration at 24 h [1]: 200 ± 100 nM
Structure (SMILES): O=C(O)c1cccc(O)c1O [2,3-Dihydroxybenzoic acid]

- concentration at 15 day [1]: 7900 ± 2700 nM
- concentration at 0 h [1]: 6700 ± 1600 nM
- concentration at 24 h [1]: 4900 ± 1000 nM
Structure (SMILES): O=C(O)c1cc(O)ccc1O [2,5-Dihydroxybenzoic acid]

- concentration at 15 day [1]: 800 ± 200 nM
- concentration at 0 h [1]: 2400 ± 700 nM
- concentration at 24 h [1]: 1100 ± 300 nM
Structure (SMILES): O=C(O)c1ccc(O)c(O)c1 [3,4-Dihydroxybenzoic acid]

- concentration at 15 day [1]: 3800 ± 400 nM
- concentration at 0 h [1]: 8000 ± 1600 nM
- concentration at 24 h [1]: 4500 ± 800 nM
Structure (SMILES): O=C(O)Cc1ccc(O)c(O)c1 [3,4-Dihydroxyphenylacetic acid]

- Concentration in fasting urine, Mean ± std Error, 0 h (Fasting) ([1]; in vivo): 3100 ± 800 nM
- Concentration in fasting urine, Mean ± std Error, 15 Days (Fasting) ([1]; in vivo): 4400 ± 1900 nM
- Concentration in fasting urine, Mean ± std Error, 24 h (Fasting) ([1]; in vivo): 2000 ± 300 nM
Structure (SMILES): O=C(O)CCc1cccc(O)c1 [3-Hydroxyphenylpropanoic acid]

- concentration at 15 day [1]: 5400 ± 800 nM
- concentration at 0 h [1]: 6100 ± 1000 nM
- concentration at 24 h [1]: 5900 ± 900 nM
Structure (SMILES): O=C(O)c1ccc(O)cc1 [4-Hydroxybenzoic acid]

- Concentration in fasting urine, Mean ± std Error, 0 h (Fasting) ([1]; in vivo): 4200 ± 1300 nM
- Concentration in fasting urine, Mean ± std Error, 15 Days (Fasting) ([1]; in vivo): 3000 ± 900 nM
- Concentration in fasting urine, Mean ± std Error, 24 h (Fasting) ([1]; in vivo): 2600 ± 600 nM
Structure (SMILES): O=C(O)Cc1ccc(O)cc1 [4-Hydroxyphenylacetic acid]

- Concentration in fasting urine, Mean ± std Error, 0 h (Fasting) ([1]; in vivo): 2000 ± 1000 nM
- Concentration in fasting urine, Mean ± std Error, 15 Days (Fasting) ([1]; in vivo): 1200 ± 400 nM
- Concentration in fasting urine, Mean ± std Error, 24 h (Fasting) ([1]; in vivo): 1500 ± 900 nM
Structure (SMILES): Cc1ccc(C(=O)NCC(=O)O)cc1 [4-Methylhippuric acid]

- Concentration in fasting urine, Mean ± std Error, 24 h (Fasting) ([1]; human fasting urine, 24 h after single-time MP beverage intake): Not detected
- concentration at 15 day [1]: 100 nM
- concentration at 0 h [1]: 100 nM
Structure (SMILES): O=C(O)/C=C/c1ccc(O)c(O)c1 [Caffeic acid]

- concentration at 15 day [1]: 15100 ± 4000 nM
- concentration at 0 h [1]: 18700 ± 12200 nM
- concentration at 24 h [1]: 15700 ± 4100 nM
Structure (SMILES): Oc1ccccc1O [Catechol]

- concentration at 15 day [1]: 200 nM
- concentration at 0 h [1]: 200 ± 100 nM
- concentration at 24 h [1]: 200 nM
Structure (SMILES): O=Cc1ccc(O)cc1 [Compound 4-Hydroxybenzaldehyde]

- Cmax (clinical; human, in vivo): 13.4 ± 1.9 nM
- Tmax (clinical; human, in vivo): 2.4 ± 0.3 h
- Cmax (clinical; human, in vivo, 100 mg): 2.1 ± 0.3 nM
- difference in plasma concentrations/areas after MP + VC beverage compared to MP beverage alone (clinical; in vivo): not statistically significant
- time within which absorbed (clinical; in vivo): 1 to 2 h
Structure (SMILES): O=C(O[C@@H]1O[C@H](CO)[C@@H](O)[C@H](O)[C@H]1O)c1cc(O)c(O)c(O)c1 [Compound C2]

- Cmax (clinical; [2]): 2560 ± 894 nM
- AUC0–24h (clinical; [3]): 5.5049 ± 1.7634 µM·h
- AUC0–24h (clinical; human, in vivo): 18.8521 ± 3.4916 µM·h
- Cmax (clinical; human, in vivo): 10000 ± 1780 nM
- Tmax (clinical; human, in vivo): 7.3 ± 0.6 h
Structure (SMILES): O=S(=O)(O)Oc1cccc(O)c1O [Compound C8]

Structure (SMILES): O=C(O)[C@H]1O[C@@H](Oc2ccccc2O)[C@H](O)[C@@H](O)[C@@H]1O [Compound C10, catechol glucuronide]
- Cmax (clinical; human plasma, 0−24 h, after MP (mango pulp 500 g) beverage, mean ± standard error, n = 13, read-out: Cmax): 472 ± 270 nM
- Cmax (clinical; human plasma, 0−24 h, after MP + VC (mango pulp 500 g + vitamin C 100 mg) beverage, mean ± standard error, read-out: Cmax): 186 ± 45.8 nM
- Cmax (clinical; [2]): 10.6 ± 3.2 nM
- AUC0–24h (clinical; [4]): 0.4833 ± 0.108 µM·h
- Tmax (clinical; [4]): 8.3 ± 0.4 h
- AUC0–24h (clinical; human plasma, after MP beverage, linear trapezoidal method, mean ± standard error): 1.8309 ± 1.391 µM·h
- Tmax (clinical; human plasma, after MP beverage, mean ± standard error): 8.0 ± 0.6 h
- AUC0–24h (clinical; [3]): 0.0448 ± 0.0051 µM·h
